Article PMC10630888, “Nuclear ERK1/2 signaling potentiation enhances neuroprotection and cognition via Importinα1/KPNA2” (EMBO Molecular Medicine, 2023)

What was measured:
pERK1/2 = pERK1/2 in striatum of zQ175 females after RB5; assay type: in vivo, mouse; conditions: zQ175 females and WT controls, RB5 for 9 days
Experimental: Immunohistochemistry was performed as described in Papale et al ([2016]). Briefly, 1 h after blocking in 5% normal goat serum and 0.1% Triton X‐100 solution, free‐floating sections were incubated overnight at 4°C with one of the following primary antibodies: anti‐phospho‐p44/42 MAP kinase (Thr202/Tyr204) (1:200, Cell Signaling Technology #9101), anti‐phospho–Elk‐1 (Ser383) (1:100, Cell Signaling #9181), anti‐phospho‐Kv4.2 (Thr607)‐R (1:100, Santa Cruz sc22254‐R), anti‐phospho‐MSK‐1 (1:100 Cell Signaling Technology #9595), anti‐phospho‐MEK1/2 (Ser218/222) (1:100, sc‐7995 Santa Cruz Biotechnology), c‐Fos (1:100, sc‐52 Santa Cruz Biotechnology), tyrosine Hydroxylase (monoclonal 1:1,000, Sigma Aldrich, Italy) and anti‐DARPP‐32 (H3) (1:100, Santa Cruz Biotechnology, #sc‐271111) overnight at 4°C. […]
For in vivo immunohistochemistry experiments, images were acquired from the dorsal striatum using a Leica DM IRB microscope under a 20× objective. The number of p‐ERK, p‐MSK‐1, p‐ELK, p‐MEK‐1, p‐VG K+, c‐Fos, and DARPP‐32 positive cells was counted in 2–3 consecutive sections per mouse, bilaterally and averaged across the sections using the ImageJ software by a blind investigator to the condition. Estimation of nigral cell loss was assessed by quantifying the number of TH‐immunopositive neurons of the SNc in 360 μm‐spaced sections for each animal. […]

[1] = test system: corticostriatal synapses on dSPNs; assay: Patch clamp, HFS-LTD at corticostriatal synapses on dSPNs; assay type: cell-based, mouse; conditions: peptide 50 μM intracellularly, mean, RB5 n = 7 cells, Scr n = 5 cells
Experimental: Brain slices containing both the striatum and the cortex were prepared as described (Trusel et al, [2015]). Mice were anesthetized by isoflurane and decapitated, and their brains were rapidly transferred to ice‐cold dissecting aCSF containing (in mM): 110 Choline‐Cl, 2.5 KCl, 1.25 NaH2PO4, 7 MgCl26H2O, 0.5 CaCl2, 25 NaHCO3, 25 D‐glucose, 11.6 ascorbic acid, saturated with 95% O2 and 5% CO2. Horizontal corticostriatal slices (270 μm thick; patch‐clamp recordings) were cut in the dissecting aCSF using a Vibratome 1000S slicer (Leica, Italy), then transferred to normal aCSF containing (in mM): 115 NaCl, 3.5 KCl, 1.2 NaH2PO4, 1.3 MgCl26H2O, 2 CaCl2, 25 NaHCO3, and 25 D‐glucose and aerated with 95% O2 and 5% CO2. Following 20 min of incubation at 32°C, slices were kept at RT. During experiments, slices were continuously perfused with aCFS at a rate of 2 ml/min at 28°C. […]
SPNs were clamped at a holding membrane potential of −80 mV. […] Series resistance (range 15–25 MW) was monitored at regular intervals throughout the recording and presented minimal variations (≤20%) in the analyzed cells. […]
The occurrence and magnitude of synaptic plasticity was evaluated by comparing the normalized EPSP amplitudes from the last 5 min of baseline recordings with the corresponding values at 20–30 min after HFS (HFS‐LTD). […]

Substance	pERK1/2 levels in striatum (pERK1/2)	Normalized EPSP amplitude after HFS (20–30 min) versus baseline ([1]; listed as Scr)	Normalized EPSP amplitude after HFS (20–30 min) versus baseline ([1]; listed as control peptide)
GRKKRRQRRRPPQGGGGGEPRRTEGVGPGVPGEVEMVKGQPFDV [RB5, six D-amino acids, acetylated N-terminus]	enhanced	–	–
SCR: ineffective Scramble version of RB5 containing a TAT sequence (GRKKRRQRRRPPRVGPGVPEGVGVAVFGVKEPGQTGDVGPVGE) [reference compound]	–	76.7653	had no effect on plasticity induction
